Earlier results in patent publication US20100008866A1, “CIS-CYCLOHEXYL SUBSTITUTED PYRIMIDINONE DERIVATIVES” (Neurogen Corporation, priority 2006, published 2010).

Target: VR (Homo sapiens, UniProt Q8NER1)
Settings: typically; no more than moderate affinity; read-out: Ki value (binds to VR)

VR, sequence (Q8NER1 whole entry): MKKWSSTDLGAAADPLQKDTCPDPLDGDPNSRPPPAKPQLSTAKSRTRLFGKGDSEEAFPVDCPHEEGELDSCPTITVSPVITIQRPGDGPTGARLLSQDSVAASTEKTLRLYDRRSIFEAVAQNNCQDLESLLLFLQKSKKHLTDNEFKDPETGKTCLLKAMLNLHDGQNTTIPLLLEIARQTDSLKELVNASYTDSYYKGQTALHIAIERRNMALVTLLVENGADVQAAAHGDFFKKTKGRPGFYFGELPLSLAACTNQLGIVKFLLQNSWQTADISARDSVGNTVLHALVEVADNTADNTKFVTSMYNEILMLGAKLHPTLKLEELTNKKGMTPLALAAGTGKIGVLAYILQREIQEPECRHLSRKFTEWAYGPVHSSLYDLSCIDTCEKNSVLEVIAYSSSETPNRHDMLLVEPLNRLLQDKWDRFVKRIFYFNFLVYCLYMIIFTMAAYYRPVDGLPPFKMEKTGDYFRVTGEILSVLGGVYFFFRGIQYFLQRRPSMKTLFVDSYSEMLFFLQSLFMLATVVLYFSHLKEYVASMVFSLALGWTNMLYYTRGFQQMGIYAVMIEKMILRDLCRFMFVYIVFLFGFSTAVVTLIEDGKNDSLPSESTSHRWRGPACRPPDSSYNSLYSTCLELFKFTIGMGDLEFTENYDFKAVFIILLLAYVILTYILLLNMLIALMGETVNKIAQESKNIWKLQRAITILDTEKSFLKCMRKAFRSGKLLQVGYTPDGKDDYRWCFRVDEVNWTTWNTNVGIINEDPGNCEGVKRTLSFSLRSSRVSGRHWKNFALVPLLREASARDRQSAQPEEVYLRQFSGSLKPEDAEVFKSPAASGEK

- Ki: ≥ 140 µM
Structure (SMILES): Cl.Cl.Cl.Cl.Cl.Cl.N.N.N.N.N.N.N.N.N.N.N.N.N.N.[O-2].[O-2].[Ru+3].[Ru+3].[Ru+4] [ruthenium red]
